How the values were obtained:
SETFA = experiment: greenhouse post-emergence herbicidal activity; format: in vivo, Setaria faberi; conditions: scale 0 to 100
Source text: (§1) The culture containers used were plastic flowerpots containing loamy sand with approximately 3.0% of humus as the substrate. The seeds of the test plants were sown separately for each species.
(§2) For the post-emergence treatment, the test plants were first grown to a height of 3 to 15 cm, depending on the plant habit, and only then treated with the active ingredients which had been suspended or emulsified in water. For this purpose, the test plants were either sown directly and grown in the same containers, or they were first grown separately as seedlings and transplanted into the test containers a few days prior to treatment.
(§3) Depending on the species, the plants were kept at 10-25° C. or 20-35° C. The test period extended over 2 to 4 weeks. During this time, the plants were tended, and their response to the individual treatments was evaluated.
(§4) Evaluation was carried out using a scale from 0 to 100. 100 means no emergence of the plants, or complete destruction of at least the aerial moieties, and 0 means no damage, or normal course of growth. A good herbicidal activity is given at values of at least 70 and a very good herbicidal activity is given at values of at least 85.

ABUTH = experiment: greenhouse pre-emergence herbicidal activity; format: in vivo, Abutilon theophrasti; conditions: scale 0 to 100
Source text: as §1
(§5) For the pre-emergence treatment, the active ingredients, which had been suspended or emulsified in water, were applied directly after sowing by means of finely distributing nozzles. The containers were irrigated gently to promote germination and growth and subsequently covered with transparent plastic hoods until the plants had rooted. This cover caused uniform germination of the test plants, unless this has been impaired by the active ingredients.
as §3, §4

SETVI [1] = experiment: greenhouse post-emergence herbicidal activity; format: in vivo, Setaria viridis; conditions: scale 0 to 100
Source text: as §1, §2, §3, §4

PANDI = experiment: greenhouse pre-emergence herbicidal activity; format: in vivo, Panicum dichotomiflorun; conditions: scale 0 to 100
Source text: as §1, §5, §3, §4

SETVI [2] = experiment: greenhouse pre-emergence herbicidal activity; format: in vivo, Setaria viridis; conditions: scale 0 to 100
Source text: as §1, §5, §3, §4

Erigeron canadensis = experiment: greenhouse pre-emergence herbicidal activity; format: in vivo; conditions: 6.25 g/ha, pre-emergence method
Source text: as §1, §5, §3, §4

Amaranthus retroflexus = experiment: greenhouse pre-emergence herbicidal activity; format: in vivo; conditions: 6.25 g/ha, pre-emergence method
Source text: as §1, §5, §3, §4

STEME = experiment: greenhouse pre-emergence herbicidal activity; format: in vivo, Stellaria media; conditions: scale 0 to 100
Source text: as §1, §5, §3, §4

DIGSA = experiment: greenhouse post-emergence herbicidal activity; format: in vivo, Digitaria sanguinales; conditions: scale 0 to 100
Source text: as §1, §2, §3, §4

LAMAM = experiment: greenhouse pre-emergence herbicidal activity; format: in vivo, Lamium amplexicaule; conditions: scale 0 to 100
Source text: as §1, §5, §3, §4

Abutilon theophrasti = experiment: greenhouse post-emergence herbicidal activity; format: in vivo; conditions: 6.25 g/ha, post-emergence method
Source text: as §1, §2, §3, §4

Chenopodium album = experiment: greenhouse post-emergence herbicidal activity; format: in vivo; conditions: 6.25 g/ha, post-emergence method
Source text: as §1, §2, §3, §4

Pharbitis purpurea = experiment: greenhouse post-emergence herbicidal activity; format: in vivo; conditions: 6.25 g/ha, post-emergence method
Source text: as §1, §2, §3, §4

Ambrosia elatior = experiment: greenhouse post-emergence herbicidal activity; format: in vivo; conditions: 6.25 g/ha, post-emergence method
Source text: as §1, §2, §3, §4

ECHCG = experiment: greenhouse post-emergence herbicidal activity; format: in vivo, Echinocloa crus-galli; conditions: scale 0 to 100
Source text: as §1, §2, §3, §4

BRAPL = experiment: greenhouse post-emergence herbicidal activity; format: in vivo, Brachiaria plantaginea; conditions: scale 0 to 100
Source text: as §1, §2, §3, §4

Compound: CC(C)N(C)S(=O)(=O)NC(=O)c1cc(-n2c(=O)cc(C(F)(F)F)n(C)c2=O)c(F)cc1Cl [B.76, saflufenacil, reference compound]
- herbicidal activity against SETFA found (SETFA; B.76 12.5 g/ha a.s.): 30
- herbicidal activity against ABUTH found (ABUTH; B.76 6.25 g/ha a.s.): 75
- herbicidal activity against SETVI found (SETVI [1]; B.76 12.5 g/ha a.s.): 40
- herbicidal activity against PANDI found (PANDI; B.76 6.25 g/ha a.s.): 55

Compound: C#CCN1C(=O)C(F)(F)Oc2cc(F)c(N3C(=O)C4=C(CCCC4)C3=O)cc21 [Ia18, 2-(2,2,7-Trifluoro-3-oxo-4-prop-2-ynyl-3,4-dihydro-2H-benzo[1,4]oxazin-6-yl)-4,5,6,7-tetrahydro-isoindole-1,3-dione]
- herbicidal activity against SETVI found (SETVI [2]; Ia18 25 g/ha a.s.): 90
- herbicidal activity against Erigeron canadensis (Erigeron canadensis): very good herbicidal activity (a very good herbicidal activity is given at values of at least 85)
- herbicidal activity against Amaranthus retroflexus (Amaranthus retroflexus): very good herbicidal activity (a very good herbicidal activity is given at values of at least 85)
- herbicidal activity against STEME found (STEME; Ia18 12.5 g/ha a.s.): 65
- herbicidal activity against STEME found (STEME; Ia18 13 g/ha a.s.): 65
- herbicidal activity against DIGSA found (DIGSA; Ia18 6.25 g/ha a.s.): 20
- herbicidal activity against SETFA found (SETFA; Ia18 6.25 g/ha a.s.): 70
- herbicidal activity against LAMAM found (LAMAM; Ia18 12.5 g/ha a.s.): 80
- herbicidal activity against ABUTH found (ABUTH; Ia18 12.5 g/ha a.s.): 55
- herbicidal activity against Abutilon theophrasti (Abutilon theophrasti): very good herbicidal activity (a very good herbicidal activity is given at values of at least 85)
- herbicidal activity against Chenopodium album (Chenopodium album): very good herbicidal activity (a very good herbicidal activity is given at values of at least 85)
- herbicidal activity against Pharbitis purpurea (Pharbitis purpurea): very good herbicidal activity (a very good herbicidal activity is given at values of at least 85)
- herbicidal activity against Ambrosia elatior (Ambrosia elatior): very good herbicidal activity (a very good herbicidal activity is given at values of at least 85)
- herbicidal activity against SETVI found (SETVI [1]; Ia18 6.25 g/ha a.s.): 55
- herbicidal activity against ECHCG found (ECHCG; Ia18 6.25 g/ha a.s.): 30
- herbicidal activity against PANDI found (PANDI; Ia18 12.5 g/ha a.s.): 70
- herbicidal activity against PANDI found (PANDI; Ia18 25 g/ha a.s.): 95
- herbicidal activity against BRAPL found (BRAPL; Ia18 6.25 g/ha a.s.): 25

Compound: Cn1nc(C(F)(F)F)c(CS(=O)(=O)C2=NOC(C)(C)C2)c1OC(F)F [B.117, pyroxasulfone, reference compound]
- herbicidal activity against STEME found (STEME; B.117 6.25 g/ha a.s.): 60
- herbicidal activity against LAMAM found (LAMAM; B.117 6.25 g/ha a.s.): 35

Compound: CC(C)N.O=C(O)CNCP(=O)(O)O [B.97, glyphosate-isopropylammonium, reference compound]
- herbicidal activity against ECHCG found (ECHCG; B.97 135 g/ha a.s.): 85

Compound: CCC(CC)Nc1c([N+](=O)[O-])cc(C)c(C)c1[N+](=O)[O-] [B.102, pendimethalin, reference compound]
- herbicidal activity against STEME found (STEME; B.102 400 g/ha a.s.): 75

Compound: COC[C@H](C)N(C(=O)CCl)c1c(C)csc1C [B.107, dimethenamid-P, reference compound]
- herbicidal activity against SETVI found (SETVI [2]; B.107 15 g/ha a.s.): 70
- herbicidal activity against PANDI found (PANDI; B.107 15 g/ha a.s.): 95

Compound: Cc1cnc(C2=NC(=O)C(C)(C(C)C)N2)c(C(=O)O)c1 (stereo not drawn) [B.30, imazapic, reference compound]
- herbicidal activity against DIGSA found (DIGSA; B.30 10 g/ha a.s.): 85
- herbicidal activity against BRAPL found (BRAPL; B.30 10 g/ha a.s.): 70
